Source: the supplement of paper PMC11616607

Assays:
Experiment in all cases: drug sensitivity score (DSS) from 5-point dose-response viability curve (DSS (area-under-curve based score)); higher = more sensitive (stronger growth inhibition or killing); extreme values may be limits of the assay
Conditions in all cases: exposure time: 72 h; concentration range: 5 concentrations over 10,000-fold range
COV362 = test system: COV362
Method in brief: (§1)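 Drugs in DMSO or water were acoustically dispensed (Echo 550) into 384-well plates at five concentrations across a 10,000-fold range. Ovarian cancer and normal ovarian cells (1,500 per well) were then added, incubated for 3 days at 37°C with 5% CO2, and read for viability by CellTiter-Glo luminescence on a PHERAstar FS. From these readings, Breeze software derived a drug sensitivity score per cell line and drug, with higher values meaning more sensitive and zero meaning no response.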

OVCAR5 = test system: OVCAR5
Method in brief: as §1

HOSE1C = test system: HOSE1C
Method in brief: as §1

Kuramochi = test system: Kuramochi
Method in brief: as §1

Ovsaho = test system: Ovsaho
Method in brief: as §1

JHOS2 = test system: JHOS2
Method in brief: as §1

OVCAR4 = test system: OVCAR4
Method in brief: as §1

OV90 = test system: OV90
Method in brief: as §1

CAOV3 = test system: CAOV3
Method in brief: as §1

OVCAR8 = test system: OVCAR8
Method in brief: as §1

COV318 = test system: COV318
Method in brief: as §1

HOSE2C = test system: HOSE2C
Method in brief: as §1

Row | SMILES | drug sensitivity score (COV362) | drug sensitivity score (OVCAR5) | drug sensitivity score (HOSE1C) | drug sensitivity score (Kuramochi) | drug sensitivity score (Ovsaho) | drug sensitivity score (JHOS2) | drug sensitivity score (OVCAR4) | drug sensitivity score (OV90) | drug sensitivity score (CAOV3) | drug sensitivity score (OVCAR8) | drug sensitivity score (COV318) | drug sensitivity score (HOSE2C)
1 | CC(C)C[C@H](NC(=O)[C@@H](COC(C)(C)C)NC(=O)[C@H](Cc1ccc(O)cc1)NC(=O)[C@H](CO)NC(=O)[C@H](Cc1c[nH]c2ccccc12)NC(=O)[C@H](Cc1cnc[nH]1)NC(=O)[C@@H]1CCC(=O)N1)C(=O)N[C@@H](CCCNC(=N)N)C(=O)N1CCC[C@H]1C(=O)NNC(N)=O [Goserelin] | 0 | 0 | 0 | 0 | 4.7 | 0 | 0 | 0 | 0 | 0 | 0 | 0
2 | O=S(=O)(c1cccc2c(O)nccc12)N1CCCNCC1 [Hydroxyfasudil] | 0 | 0 | 0 | 0 | 0 | 0.4 | 0 | 0 | 0 | 0 | 0.1 | 0
3 | NC(=O)NO [Hydroxyurea] | 0.1 | 2.9 | 8.2 | 0 | 2.3 | 3.3 | 0 | 2.8 | 1.1 | 5.1 | 1.7 | 8
4 | COc1cc2c(cc1-c1c(C)noc1C)ncc1[nH]c(=O)n([C@H](C)c3ccccn3)c12 [I-BET151] | 0.6 | 7.1 | 13.8 | 9.2 | 12 | 4.5 | 6.9 | 8.2 | 11.9 | 9.5 | 1.9 | 11.3
5 | O=C(O)c1ccc(O)c2ncccc12 [IOX-1] | 0 | 1 | 4.6 | 1.6 | 1.6 | 0 | 1.5 | 3.2 | 1.2 | 3 | 0 | 3.4
6 | O=C(O)CNC(=O)c1c(O)c2ccccc2n(Cc2ccccc2)c1=O [IOX-2] | 0 | 0 | 0.1 | 0 | 0 | 0 | 0 | 0 | 0 | 0 | 0 | 0
7 | C=CC(=O)N1CCC[C@@H](n2nc(-c3ccc(Oc4ccccc4)cc3)c3c(N)ncnc32)C1 [Ibrutinib] | 0.5 | 3.1 | 0 | 2.8 | 2.5 | 0 | 1.5 | 0 | 3 | 0 | 0 | 0
8 | C#Cc1cccc(Nc2ncnc3cc4c(cc23)OCCOCCOCCO4)c1 [Icotinib] | 0 | 4.3 | 0 | 0.2 | 1.1 | 0.4 | 1.7 | 0 | 5.7 | 0 | 0.2 | 0
9 | CC(=O)[C@]1(O)Cc2c(O)c3c(c(O)c2[C@@H](O[C@H]2C[C@H](N)[C@H](O)[C@H](C)O2)C1)C(=O)c1ccccc1C3=O [Idarubicin] | 4.8 | 7.7 | 14.2 | 5.1 | 11.7 | 7.1 | 6.3 | 10.7 | 12 | 10.3 | 6.1 | 13.7
10 | COc1cc(C(=O)O)ccc1NC(=O)[C@@H]1N[C@@H](CC(C)(C)C)[C@](C#N)(c2ccc(Cl)cc2F)[C@H]1c1cccc(Cl)c1F [Idasanutlin] | 0 | 0.7 | 16 | 0 | 0 | 0 | 1.2 | 0 | 0 | 3.3 | 0 | 10.5
11 | CC[C@H](Nc1ncnc2[nH]cnc12)c1nc2cccc(F)c2c(=O)n1-c1ccccc1 [Idelalisib] | 1.3 | 2.7 | 0.1 | 5.8 | 5.7 | 0.9 | 2.3 | 0 | 0.8 | 0.2 | 0.7 | 1
12 | CC(C)Cn1cnc2c(N)nc3ccccc3c21 [Imiquimod] | 0 | 0 | 0 | 0 | 0 | 0.5 | 0 | 0 | 0 | 0.1 | 0 | 0
13 | O=C(Nc1ccncc1)C(=O)c1cn(Cc2ccc(Cl)cc2)c2ccccc12 [Indibulin] | 1.8 | 5.7 | 20.1 | 7.2 | 7.9 | 6.8 | 5.5 | 5.9 | 7.2 | 6.4 | 2.5 | 18.3
14 | CCN1CCN(c2ccc(Nc3cc(N(C)C(=O)Nc4c(Cl)c(OC)cc(OC)c4Cl)ncn3)cc2)CC1 [Infigratinib] | 0 | 0 | 0 | 0 | 0 | 0 | 0 | 0 | 0 | 0 | 0 | 0
15 | CC(C)NC[C@@H](C(=O)N1CCN(c2ncnc3c2[C@H](C)C[C@H]3O)CC1)c1ccc(Cl)cc1 [Ipatasertib] | 0 | 3 | 2.7 | 2.6 | 1.6 | 0.1 | 0 | 0.5 | 1.9 | 0.5 | 0.1 | 4.4
